Data on five molecules can be found in ChEMBL document CHEMBL4007500, “Cyclic mu-opioid receptor ligands containing multiple N-methylated amino acid residues” (Bioorg Med Chem Lett, 2017).

Data set [1] in a line: Stability of compound in Wistar rat brain homogenate assessed as compound remaining at 0.5 mM after 90 mins by RP-HPLC analysis. The data set is classed as ADME, tissue-based. Conditions: read-out: Stability.
Data set [2] concerns the target Mu-type opioid receptor (Rattus norvegicus, UniProt P33535). Nature of the data set: Displacement of [3H]DAMGO from MOR in Wistar rat brain homogenates after 180 mins by liquid scintillation counting analysis. A general note: Displacement assays read how much labelled ligand stays bound in the presence of the test substance.
Data set [3] concerns the target Delta-type opioid receptor (Rattus norvegicus, UniProt P33533). Nature of the data set: Displacement of [3H][Ile5,6]deltorphin-2 from DOR in Wistar rat brain homogenates after 180 mins by liquid scintillation counting analysis.
In data set [4] the target is Kappa-type opioid receptor (Cavia porcellus, UniProt P41144). The data set is described as follows: Displacement of [3H]nor-BNI from KOR in Dunkin Hartley guinea pig brain homogenates after 180 mins by liquid scintillation counting analysis.
Chain of Kappa-type opioid receptor (P41144 whole entry): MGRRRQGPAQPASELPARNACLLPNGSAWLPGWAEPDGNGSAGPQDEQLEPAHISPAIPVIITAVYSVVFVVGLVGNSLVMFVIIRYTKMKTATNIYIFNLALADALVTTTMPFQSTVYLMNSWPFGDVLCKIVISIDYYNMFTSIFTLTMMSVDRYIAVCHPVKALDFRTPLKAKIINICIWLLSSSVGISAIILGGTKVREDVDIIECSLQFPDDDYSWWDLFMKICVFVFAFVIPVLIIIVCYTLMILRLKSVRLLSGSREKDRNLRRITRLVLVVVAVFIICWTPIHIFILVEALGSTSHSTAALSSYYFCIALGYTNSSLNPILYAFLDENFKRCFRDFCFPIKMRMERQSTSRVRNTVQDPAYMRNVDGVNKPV
In data set [5] the target is T1, Mu-type opioid receptor (Homo sapiens, UniProt P35372). Nature of the data set: Agonist activity at human recombinant MOR expressed in CHO cells assessed as calcium mobilization by Fluo-4 AM based fluorescence analysis relative to EM2. The data set is classed as functional, cell-based. (In general: Calcium flux is commonly read through the fluorescence of an indicator in the cells.)
T1 sequence (P35372 whole entry): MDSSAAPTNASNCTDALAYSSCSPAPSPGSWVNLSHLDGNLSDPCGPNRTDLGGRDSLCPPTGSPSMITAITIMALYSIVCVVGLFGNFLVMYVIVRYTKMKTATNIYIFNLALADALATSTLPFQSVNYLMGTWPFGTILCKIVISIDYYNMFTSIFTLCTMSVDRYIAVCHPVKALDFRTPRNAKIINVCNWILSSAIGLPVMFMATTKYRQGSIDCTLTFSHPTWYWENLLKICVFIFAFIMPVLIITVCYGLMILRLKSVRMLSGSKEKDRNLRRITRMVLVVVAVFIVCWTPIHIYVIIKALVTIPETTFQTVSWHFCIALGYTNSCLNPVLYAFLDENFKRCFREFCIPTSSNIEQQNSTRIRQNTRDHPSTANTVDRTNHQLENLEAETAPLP

The target in data set [6] is T1, Mu-type opioid receptor. Nature of the data set: Agonist activity at human recombinant MOR expressed in CHO cells assessed as calcium mobilization by Fluo-4 AM based fluorescence analysis. In kind it is functional, cell-based.
Data set [7] concerns the target Kappa-type opioid receptor (Homo sapiens) (UniProt P41145). Nature of the data set: Agonist activity at human recombinant KOR expressed in CHO cells assessed as calcium mobilization up to 1 uM by Fluo-4 AM based fluorescence analysis. In kind it is functional, cell-based.
For data set [8], the target named is Delta-type opioid receptor (Homo sapiens) (UniProt P41143). Nature of the data set: Agonist activity at human recombinant DOR expressed in CHO cells assessed as calcium mobilization up to 1 uM by Fluo-4 AM based fluorescence analysis. The data set is classed as functional, cell-based.
Chain of Delta-type opioid receptor (Homo sapiens) (P41143 whole entry): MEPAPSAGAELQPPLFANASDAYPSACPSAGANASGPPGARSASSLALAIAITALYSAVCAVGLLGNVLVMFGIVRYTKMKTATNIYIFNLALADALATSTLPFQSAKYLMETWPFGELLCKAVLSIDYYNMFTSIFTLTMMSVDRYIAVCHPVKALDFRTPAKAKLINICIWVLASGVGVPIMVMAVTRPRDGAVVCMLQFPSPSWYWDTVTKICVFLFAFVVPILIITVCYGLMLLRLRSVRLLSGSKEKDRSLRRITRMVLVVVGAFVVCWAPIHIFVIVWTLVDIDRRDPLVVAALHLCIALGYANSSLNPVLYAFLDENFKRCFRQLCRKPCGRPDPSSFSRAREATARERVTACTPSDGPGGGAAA

Calls of active or inactive are those of the source. The rule behind the calls is not given here.

Chain of Delta-type opioid receptor (P33533 whole entry): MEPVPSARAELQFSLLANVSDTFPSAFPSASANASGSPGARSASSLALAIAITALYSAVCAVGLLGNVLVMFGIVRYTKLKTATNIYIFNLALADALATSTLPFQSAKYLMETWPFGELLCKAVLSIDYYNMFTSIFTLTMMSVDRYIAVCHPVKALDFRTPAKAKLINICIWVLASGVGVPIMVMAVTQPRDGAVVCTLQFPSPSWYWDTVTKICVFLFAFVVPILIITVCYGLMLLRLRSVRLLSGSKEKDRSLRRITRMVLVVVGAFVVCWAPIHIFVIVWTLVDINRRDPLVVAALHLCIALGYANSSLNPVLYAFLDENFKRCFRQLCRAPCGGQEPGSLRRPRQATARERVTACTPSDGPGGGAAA
Chain of Kappa-type opioid receptor (Homo sapiens) (P41145 whole entry): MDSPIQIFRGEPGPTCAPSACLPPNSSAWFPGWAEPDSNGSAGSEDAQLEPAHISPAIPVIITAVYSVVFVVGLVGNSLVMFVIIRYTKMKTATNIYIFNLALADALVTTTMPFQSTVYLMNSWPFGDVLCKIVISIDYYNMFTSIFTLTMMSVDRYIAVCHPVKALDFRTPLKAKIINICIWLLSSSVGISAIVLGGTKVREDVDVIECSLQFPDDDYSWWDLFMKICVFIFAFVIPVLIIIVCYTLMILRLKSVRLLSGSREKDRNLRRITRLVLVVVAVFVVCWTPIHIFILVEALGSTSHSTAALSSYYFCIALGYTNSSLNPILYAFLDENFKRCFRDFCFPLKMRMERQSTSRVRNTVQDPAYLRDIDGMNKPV
Chain of Mu-type opioid receptor (Rattus norvegicus, UniProt P33535) (P33535 whole entry): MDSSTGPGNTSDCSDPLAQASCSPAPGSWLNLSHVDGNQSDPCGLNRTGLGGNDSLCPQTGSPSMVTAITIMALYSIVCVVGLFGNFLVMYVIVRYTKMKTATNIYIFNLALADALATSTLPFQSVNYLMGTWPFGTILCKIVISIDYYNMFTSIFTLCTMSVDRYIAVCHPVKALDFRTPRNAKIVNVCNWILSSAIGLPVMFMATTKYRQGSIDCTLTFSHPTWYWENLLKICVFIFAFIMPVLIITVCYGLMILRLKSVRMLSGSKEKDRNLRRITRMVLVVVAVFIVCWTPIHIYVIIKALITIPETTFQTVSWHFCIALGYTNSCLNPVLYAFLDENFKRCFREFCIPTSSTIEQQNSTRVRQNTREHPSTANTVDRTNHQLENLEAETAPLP

As a reminder, the Ki is a dissociation constant, usually derived from enzyme kinetics or from competition with a known ligand. In general, EC50 refers to the midpoint of the concentration-response curve. `CN[C@@H](Cc1ccc(O)cc1)C(=O)N[C@@H]1CCCCNC(=O)C[C@@H](C(N)=O)NC(=O)[C@H](Cc2ccccc2)N(C)C(=O)[C@H](Cc2ccccc2)NC1=O`: in data set [1], the remaining at 1.5 h, 500 µM is 97.2%. The Ki in data set [2] (read-out: Ki) is 0.73 nM; in data set [3] (read-out: Ki), greater than 1000 nM; in data set [4] (read-out: Ki) it was greater than 1000 nM. Also, the Intrinsic activity in data set [5] amounted to 0.93. For the same molecule, the EC50 in data set [6] was 10.2 nM. Further, the outcome in data set [7] and in data set [8] was inactive.
As for `CN[C@@H](Cc1ccc(O)cc1)C(=O)N[C@@H]1CCCCNC(=O)C[C@@H](C(N)=O)NC(=O)[C@H](Cc2ccccc2)N(C)C(=O)CNC(=O)[C@H](Cc2ccccc2)N(C)C1=O`, in data set [1], the remaining at 1.5 h, 500 µM was 97%. In addition, the Ki in data set [2] (read-out: Ki) is 76.5 nM; in data set [3] (read-out: Ki), greater than 1000 nM; in data set [4] (read-out: Ki), 519 nM.
With `CN[C@H](Cc1ccc(O)cc1)C(=O)N[C@H]1CCCCNC(=O)C[C@@H](C(N)=O)NC(=O)[C@H](Cc2ccccc2)N(C)C(=O)CNC(=O)[C@H](Cc2ccccc2)N(C)C1=O`, in data set [6], the pEC50 entry was “inactive”. Further, the outcome in data set [7] and in data set [8] was inactive.
Turning to `CN[C@@H](Cc1ccc(O)cc1)C(=O)N[C@@H]1CCCCNC(=O)C[C@@H](C(N)=O)NC(=O)CNC(=O)[C@H](Cc2ccccc2)N(C)C(=O)[C@H](Cc2ccccc2)N(C)C(=O)CNC1=O`, the remaining at 1.5 h, 500 µM in data set [1] amounted to 97.4%. Moreover, the Ki in data set [2] (read-out: Ki) was 106 nM; in data set [3] (read-out: Ki), greater than 1000 nM; in data set [4] (read-out: Ki), greater than 1000 nM. Besides, the pEC50 result in data set [6] is “inactive”. Further, the result in data set [7] and in data set [8] was inactive.
With `CN[C@@H](Cc1ccc(O)cc1)C(=O)N[C@@H]1CCCCNC(=O)C[C@@H](C(N)=O)NC(=O)[C@H](Cc2ccccc2)N(C)C(=O)[C@H](Cc2ccccc2)N(C)C1=O`, in data set [1], the remaining at 1.5 h, 500 µM came to 96.9%. The Ki entry in data set [2], in data set [3] and in data set [4] was “Nd(Insoluble)” in each case.
